Laboratory results reported in patent US5102870A, “Treatment and prevention of oral mucositis with growth factors” (Schering AG, priority 1989, dated 1992).

Tested on: mucositis induced by the administration of 5-FU in hamsters
Assay: 5-fluorouracil plus mechanical irritation induced oral mucositis model, cheek pouch
Format: in vivo, Golden Syrian hamsters
Text: An animal model for studying the acute effects of chemotherapy and radiotherapy in the oral cavity was developed by Dr. Stephen T. Sonis at Brigham and Women's Hospital, Boston, Mass. This model was particularly suited for testing the efficacy of growth factors on chemotherapy mucositis. This model utilizes an acute regimen of 5-fluorouracil (5-FU) combined with mechanical irritation to induce mucositis. More specifically, intraperitoneal (i.p.) injections of 5-fluorouracil were combined with superficial mechanical mucosal irritation to result in clinical breakdown of the oral mucosa as characterized by ulcerative mucositis in Golden Syrian hamsters. […] For these reasons, it was believed that this model would be extremely beneficial in evaluating growth factors to treat mucositis.
The following experiment was performed to determine the effects of growth factors, specifically TGF-α, on the prevention and healing of mucositis induced by the administration of 5-FU in hamsters. Example 1:
One hundred young male Golden Syrian hamsters were divided into four groups of 25 animals each. Beginning on day 0, animals received twice daily dosing of their cheek pouch buccal mucosa as follows:
Medication was applied in a volume of 0.2 ml of Orabase per cheek pouch. The right cheek pouch was mechanically irritated by superficial scratching starting at day 0, daily until erythematous changes were noted. For most animals, such changes were noted by day 2 and mechanical irritation discontinued. For the remaining animals, mechanical irritation was stopped at day 3. Beginning on day 0, all of the animals received i.p. injections of 5-FU at a dose of 60 mg/kg body weight, with additional dosing on days 5 and 10. The animals were observed and weighed daily. On days 2, 4, 6, 8, 10, 12, 14, 16, 18 and 20, two animals were randomly sacrificed in each group. Cheek pouches were biopsied. The tissue was then placed in 10% formalin for histologic study according to established methods, and subsequently stained with hematoxylin and eosin. The following parameters were evaluated and scored: inflammatory infiltrate, degree of epithelial atropy, extent of epithelial breakdown/ulceration, mitotic activity at would margins and evidence of superficial/secondary infection. Two randomly selected hamsters from each group had their cheek pouches photographed daily. The animals were weighed and observed daily. […] Mucositis was scored using the following established scale:
Grade 0--no evidence of ulcers or mucositis
Grade 1--erythema but no ulceration
Grade 2--1 or 2 small (<2 mm), single ulcers
Grade 3--1 large or 3 or more small ulcers
Grade 4--multiple large ulcers and/or involvement of 50% of pouch mucosal surface area
The animals were evaluated both for the ability of TGF-α to delay the onset and reduce the severity of mucositis. The data presented here are based upon clinical observations. Histologic evaluation of biopsied cheek pouches corroborated these observations.

For “transforming growth factor-alpha [TGF-α]”, the “averaged mucositis grades (severity of mucositis)” value (Group III, TGF-α in Orabase 2 μg/dose (low dose), twice daily, compared among groups) was “best results”, the “development of grade 3/4 mucositis” value (Group III, TGF-α in Orabase 2 μg/dose, twice daily) was “did not develop” and the “day of development of grade 3/4 mucositis” value (Group IV, TGF-α in Orabase 20 μg/dose, twice daily) was 9 days. The “onset of mucositis (development of grade 3 and 4 mucositis)” value (TGF-α groups vs Group I (none) and Group II (Orabase only)) was “delayed the onset of mucositis” and the “averaged mucositis grades (severity of mucositis)” value (groups receiving TGF-α in Orabase (2 or 20 μg/dose), topical to cheek pouch twice daily, 18 day period, vs control groups) was “lower overall scores”.
